Experiment [1] has as its system thapsigargin-induced IL-2 production in human whole blood.
Experiment [2] has as its system thapsigargin-induced IFN-g production in human whole blood. The experiment is classed as cell-based.
The mark [3] stands for this setting: read-out: Analogue Activity (IC50) WB/IL-2.
The mark [4] stands for this setting: read-out: Analogue Activity (IC50) WB/IFNg.

Read-outs that look alike come from different tables or passages of the source. Bridge positions count the residues as written; N and C are the ends. Square brackets hold non-standard residues; d marks the D form. Peptide text beside a SMILES is read from it. 1Nal = N[C@@H](Cc1cccc2ccccc12)C(=O)O

For `CC[C@H](C)[C@@H]1NC(=O)[C@H](CCCCN)NC(=O)[C@@H](NC(=O)[C@H](CCCCN)NC(=O)[C@@H](NC(=O)[C@H](CC(N)=O)NC(=O)[C@@H](NC(=O)[C@@H](NC(=O)[C@@H](NC(=O)CN)C(C)C)[C@@H](C)CC)[C@@H](C)CC)C(C)C)CSSC[C@@H]2NC(=O)[C@H](CCCCN)NC(=O)CNC(=O)[C@H](Cc3ccccc3)NC(=O)[C@H](CCCNC(=N)N)NC(=O)[C@H](CCSC)NC(=O)CNC(=O)[C@H](C)NC(=O)[C@H](CCCCN)NC(=O)[C@H](CCCCN)NC(=O)[C@@H]3CSSC[C@@H](C(=O)N[C@H](C(=O)N4CCC[C@H]4C(=O)N[C@@H](CCCCN)C(=O)O)[C@@H](C)O)NC(=O)[C@H](Cc4c[nH]cn4)NC(=O)[C@H](CSSC[C@H](NC(=O)[C@H](CCC(N)=O)NC(=O)[C@H](CCCNC(=N)N)NC(=O)[C@H](CO)NC1=O)C(=O)N[C@@H](CC(C)C)C(=O)N[C@@H](CCC(=O)O)C(=O)N1CCC[C@H]1C(=O)N3)NC(=O)[C@H](CCCCN)NC(=O)CNC(=O)[C@H](CCCNC(=N)N)NC(=O)[C@H](CCSC)NC2=O` [N30R] (H-GVIINVKCKISRQCLEPCKKAGMRFGKCMRGKCHCTPK-OH; disulfide 8-28, 14-33, 18-35), the values for the IC50 in experiment [1] (setting [3]) and in experiment [2] (setting [4]) were 405 pM and 445 pM, respectively.

Consider “GVIINVKCAISRQCLEPCKKAGMRFGKCMNGKCHCTPK [Ala-9 (SEQ ID No: 1407)]”, for which the values for the IC50 in experiment [1] (read-out: Average IC50 IL-2) and in experiment [2] (read-out: Average IC50 IFNg) were 79.6 pM and 71.1 pM, respectively.

Take `CC[C@H](C)[C@@H]1NC(=O)[C@H](CCCCN)NC(=O)[C@@H](NC(=O)[C@H](CCCCN)NC(=O)[C@@H](NC(=O)[C@H](CC(N)=O)NC(=O)[C@@H](NC(=O)[C@@H](NC(=O)[C@@H](NC(=O)CN)C(C)C)[C@@H](C)CC)[C@@H](C)CC)C(C)C)CSSC[C@@H]2NC(=O)[C@H](CCCCN)NC(=O)CNC(=O)[C@H](Cc3ccccc3)NC(=O)[C@H](CCCNC(=N)N)NC(=O)[C@H](CCCNC(=N)N)NC(=O)CNC(=O)[C@H](C)NC(=O)[C@H](CCCCN)NC(=O)[C@H](CCCCN)NC(=O)[C@@H]3CSSC[C@@H](C(=O)N[C@H](C(=O)N4CCC[C@H]4C(=O)N[C@@H](CCCCN)C(=O)O)[C@@H](C)O)NC(=O)[C@H](Cc4c[nH]cn4)NC(=O)[C@H](CSSC[C@H](NC(=O)[C@H](CCC(N)=O)NC(=O)[C@H](CCCNC(=N)N)NC(=O)[C@H](CO)NC1=O)C(=O)N[C@@H](CC(C)C)C(=O)N[C@@H](CCC(=O)O)C(=O)N1CCC[C@H]1C(=O)N3)NC(=O)[C@H](CCCCN)NC(=O)CNC(=O)[C@H](CC(N)=O)NC(=O)[C@H](CCSC)NC2=O` [M23R] (H-GVIINVKCKISRQCLEPCKKAGRRFGKCMNGKCHCTPK-OH; disulfide 8-28, 14-33, 18-35): the IC50 in experiment [1] (setting [3]) turned out to be 182 pM; in experiment [2] (setting [4]), 148 pM.

As for `CC[C@H](C)[C@@H]1NC(=O)[C@H](CCCCN)NC(=O)[C@@H](NC(=O)[C@H](CCCCN)NC(=O)[C@@H](NC(=O)[C@H](CC(N)=O)NC(=O)[C@@H](NC(=O)[C@@H](NC(=O)[C@@H](NC(=O)CN)C(C)C)[C@@H](C)CC)[C@@H](C)CC)C(C)C)CSSC[C@@H]2NC(=O)[C@H](CCCCN)NC(=O)CNC(=O)[C@H](Cc3ccccc3)NC(=O)[C@H](CCCNC(=N)N)NC(=O)[C@H](CCSC)NC(=O)CNC(=O)[C@H](C)NC(=O)[C@H](CCCCN)NC(=O)[C@H](CCCCN)NC(=O)[C@@H]3CSSC[C@@H](C(=O)N[C@H](C(=O)N4CCC[C@H]4C(=O)N[C@@H](CCCCN)C(=O)O)[C@@H](C)O)NC(=O)[C@H](Cc4c[nH]cn4)NC(=O)[C@H](CSSC[C@H](NC(=O)[C@H](CCC(N)=O)NC(=O)[C@H](CCC(=O)O)NC(=O)[C@H](CO)NC1=O)C(=O)N[C@@H](CC(C)C)C(=O)N[C@@H](CCC(=O)O)C(=O)N1CCC[C@H]1C(=O)N3)NC(=O)[C@H](CCCCN)NC(=O)CNC(=O)[C@H](CC(N)=O)NC(=O)[C@H](CCSC)NC2=O` [R12E] (H-GVIINVKCKISEQCLEPCKKAGMRFGKCMNGKCHCTPK-OH; disulfide 8-28, 14-33, 18-35), the IC50 in experiment [1] (setting [3]) turned out to be 1790 pM; in experiment [2] (setting [4]) it was 2000 pM.

With `CC[C@H](C)[C@@H]1NC(=O)[C@H](CCCCN)NC(=O)[C@@H](NC(=O)[C@H](CCCCN)NC(=O)[C@@H](NC(=O)[C@H](CC(N)=O)NC(=O)[C@@H](NC(=O)[C@H](CCCNC(=N)N)NC(=O)[C@@H](NC(=O)CN)C(C)C)[C@@H](C)CC)C(C)C)CSSC[C@@H]2NC(=O)[C@H](CCCCN)NC(=O)CNC(=O)[C@H](Cc3ccccc3)NC(=O)[C@H](CCCNC(=N)N)NC(=O)[C@H](CCSC)NC(=O)CNC(=O)[C@H](C)NC(=O)[C@H](CCCCN)NC(=O)[C@H](CCCCN)NC(=O)[C@@H]3CSSC[C@@H](C(=O)N[C@H](C(=O)N4CCC[C@H]4C(=O)N[C@@H](CCCCN)C(=O)O)[C@@H](C)O)NC(=O)[C@H](Cc4c[nH]cn4)NC(=O)[C@H](CSSC[C@H](NC(=O)[C@H](CCC(N)=O)NC(=O)[C@H](CCCNC(=N)N)NC(=O)[C@H](CO)NC1=O)C(=O)N[C@@H](CC(C)C)C(=O)N[C@@H](CCC(=O)O)C(=O)N1CCC[C@H]1C(=O)N3)NC(=O)[C@H](CCCCN)NC(=O)CNC(=O)[C@H](CC(N)=O)NC(=O)[C@H](CCSC)NC2=O` [I3R] (H-GVRINVKCKISRQCLEPCKKAGMRFGKCMNGKCHCTPK-OH; disulfide 8-28, 14-33, 18-35), the IC50 is 148 pM in experiment [1] (setting [3]) and 180 pM in experiment [2] (setting [4]).

As to `CC[C@H](C)[C@@H]1NC(=O)[C@H](CCCCN)NC(=O)[C@@H](NC(=O)[C@H](CCCCN)NC(=O)[C@@H](NC(=O)[C@H](CC(N)=O)NC(=O)[C@@H](NC(=O)[C@@H](NC(=O)[C@@H](NC(=O)CN)C(C)C)[C@@H](C)CC)[C@@H](C)CC)C(C)C)CSSC[C@@H]2NC(=O)[C@H](CCCCN)NC(=O)CNC(=O)[C@H](Cc3ccccc3)NC(=O)[C@H](CCCNC(=N)N)NC(=O)[C@H](CCSC)NC(=O)CNC(=O)[C@H](C)NC(=O)[C@H](CCCCN)NC(=O)[C@H](CCCCN)NC(=O)[C@@H]3CSSC[C@@H](C(=O)N[C@H](C(=O)N4CCC[C@H]4C(=O)N[C@@H](CCCCN)C(=O)O)[C@@H](C)O)NC(=O)[C@H](Cc4c[nH]cn4)NC(=O)[C@H](CSSC[C@H](NC(=O)[C@H](CCC(N)=O)NC(=O)[C@H](CCCNC(=N)N)NC(=O)[C@H](CO)NC1=O)C(=O)N[C@@H](CC(C)C)C(=O)N[C@@H](CCC(=O)O)C(=O)N1CCC[C@H]1C(=O)N3)NC(=O)[C@H](CCCCN)NC(=O)[C@H](CCCNC(=N)N)NC(=O)[C@H](CC(N)=O)NC(=O)[C@H](CCSC)NC2=O` [G31R], the IC50 in experiment [1] (setting [3]) turned out to be 314 pM; in experiment [2] (setting [4]), 343 pM.

Turning to “GVIINVKCKISRQCAEPCKKAGMRFGKCMNGKCHCTPK [Ala-15 (SEQ ID No: 1412)]”, the IC50 in experiment [1] (read-out: Average IC50 IL-2) and in experiment [2] (read-out: Average IC50 IFNg) was 108 pM throughout.

Turning to “GGGGS-Osk1 (GGGGSGVIINVKCKISRQCLEPCKKAGMRFGKCMNGKCHCTPK)”, the IC50 was 1360 pM in experiment [1] (read-out: WB/IL-2 (IC50)) and 2200 pM in experiment [2] (read-out: WB/IFNg (IC50)).

On to `CC[C@H](C)[C@@H]1NC(=O)[C@H](CCCCN)NC(=O)[C@@H](NC(=O)[C@H](CCCCN)NC(=O)[C@@H](NC(=O)[C@H](CC(N)=O)NC(=O)[C@@H](NC(=O)[C@H](Cc2cccc3ccccc23)NC(=O)[C@@H](NC(=O)CN)C(C)C)[C@@H](C)CC)C(C)C)CSSC[C@@H]2NC(=O)[C@H](CCCCN)NC(=O)CNC(=O)[C@H](Cc3ccccc3)NC(=O)[C@H](CCCNC(=N)N)NC(=O)[C@H](CCSC)NC(=O)CNC(=O)[C@H](C)NC(=O)[C@H](CCCCN)NC(=O)[C@H](CCCCN)NC(=O)[C@@H]3CSSC[C@@H](C(=O)N[C@H](C(=O)N4CCC[C@H]4C(=O)N[C@@H](CCCCN)C(=O)O)[C@@H](C)O)NC(=O)[C@H](Cc4c[nH]cn4)NC(=O)[C@H](CSSC[C@H](NC(=O)[C@H](CCC(N)=O)NC(=O)[C@H](CCCNC(=N)N)NC(=O)[C@H](CO)NC1=O)C(=O)N[C@@H](CC(C)C)C(=O)N[C@@H](CCC(=O)O)C(=O)N1CCC[C@H]1C(=O)N3)NC(=O)[C@H](CCCCN)NC(=O)CNC(=O)[C@H](CC(N)=O)NC(=O)[C@H](CCSC)NC2=O` [I3Nal] (H-GV[1Nal]INVKCKISRQCLEPCKKAGMRFGKCMNGKCHCTPK-OH; disulfide 8-28, 14-33, 18-35), for which the results for the IC50 in experiment [1] (setting [3]) and in experiment [2] (setting [4]) were 907 pM and 739 pM, respectively.

B1: FcLoop-G2-ShK-G2 (protein)
chain: MDKTHTCPPCPAPELLGGPSVFLFPPKPKDTLMISRTPEVTCVVVDVSHEDPEVKFNWYVDGVEVHNAKTKPREEQYNSTYRVVSVLTVLHQDWLNGKEYKCKVSNKALPAPIEKTISKAKGQPREPQVYTLPPSRDELGGRSCIDTIPKSRCTAFQCKHSMKYRLSFCRKTCGTCGGTKNQVSLTCLVKGFYPSDIAVEWESNGQPENNYKTTPPVLDSDGSFFLYSKLTVDKSRWQQGNVFSCSVMHEALHNHYTQKSLSLSPGK
In the case of B1, the values for the IC50 in experiment [1] (read-out: WB/IL-2 (IC50)) and in experiment [2] (read-out: WB/IFNg (IC50)) were 109 pM and 119 pM, respectively.

B2: 20k PEG-L2-6H-L3-CH2-L10-OsK1(1-38) (conjugate)
chain: MGGHHHHHHGGGPSVFLFPPKPKDTLMISRTPEVTCVVVDVSHEDPEVKFNWYVDGVEVHNAKTKPREEQYNSTYRVVSVLTVLHQDWLNGKEYKCKVSNKALPAPIEKTISGGGGSGGGGSGVIINVKCKISRQCLEPCKKAGMRFGKCMNGKCHCTPK
For the molecule B2, the IC50 in experiment [1] (read-out: WB/IL-2 (IC50)) amounted to 8320 pM; in experiment [2] (read-out: WB/IFNg (IC50)), 50100 pM.

B3: FcLoop-G4-OSK-G2 (protein)
chain: MDKTHTCPPCPAPELLGGPSVFLFPPKPKDTLMISRTPEVTCVVVDVSHEDPEVKFNWYVDGVEVHNAKTKPREEQYNSTYRVVSVLTVLHQDWLNGKEYKCKVSNKALPAPIEKTISKAKGQPREPQVYTLPPSRDELGGGGGVIINVKCKISRQCLEPCKKAGMRFGKCMNGKCHCTPKGGTKNQVSLTCLVKGFYPSDIAVEWESNGQPENNYKTTPPVLDSDGSFFLYSKLTVDKSRWQQGNVFSCSVMHEALHNHYTQKSLSLSPGK
For the molecule B3, the IC50 in experiment [1] (read-out: WB/IL-2 (IC50)) was found to be 150 pM; in experiment [2] (read-out: WB/IFNg (IC50)), 195 pM.

B4: FcLoop-G2-OSK-G2 (protein)
chain: MDKTHTCPPCPAPELLGGPSVFLFPPKPKDTLMISRTPEVTCVVVDVSHEDPEVKFNWYVDGVEVHNAKTKPREEQYNSTYRVVSVLTVLHQDWLNGKEYKCKVSNKALPAPIEKTISKAKGQPREPQVYTLPPSRDELGGGVIINVKCKISRQCLEPCKKAGMRFGKCMNGKCHCTPKGGTKNQVSLTCLVKGFYPSDIAVEWESNGQPENNYKTTPPVLDSDGSFFLYSKLTVDKSRWQQGNVFSCSVMHEALHNHYTQKSLSLSPGK
For the molecule B4, the IC50 came out at 28 pM in experiment [1] (read-out: WB/IL-2 (IC50)) and 56 pM in experiment [2] (read-out: WB/IFNg (IC50)).

These data come from patent publication US7820623B2 (priority 2006, dated 2010).
